Measured values: patent US9174968B2, “Pyrimidinone compounds for use in the treatment of diseases or conditions mediated by LP-PLA2” (GLAXO GROUP LIMITED, priority 2010, dated 2015)

Assays:
[1] = system: proinflammatory (M1) and anti-inflammatory (M2) markers in macrophages; assay: Experimental autoimmune encephalomyelitis (EAE) model, ex vivo analysis of M1 and M2 markers by realtime PCR; type: in vivo, rats; conditions: EAE induced with MBP, splenic macrophages day 13 and CNS infiltrating macrophages
Experimental: A further study was carried out to study the impact of Lp-PLA2 inhibitors on modulating M1/M2 imbalance. In this study, rats were induced to develop experimental autoimmune encephalomyelitis (EAE) by immunization with myelin basic protein (MBP) antigen and treated with a known Lp-PLA2 inhibitor: 5-((9-Methoxy-4-oxo-6,7-dihydro-4H-pyrimido[6,1-a]isoquinolin-2-yl)oxy)-2-(3-(trifluoromethyl)phenoxy)benzonitrile (See PCT application no. PCT/CN2011/001597) For preventive treatment, compound administration started at day 0 whereas it started at 7 day in therapeutic treatment. Rats were subsequently monitored for symptoms of EAE. Rats were immunized with MBP to develop EAE and symptoms were monitored daily. Plasma Lp-PLA2 activity and LysoPC concentration were determined at different time points through the course of EAE.
Ex vivo analysis of proinflammatory (M1) and anti-inflammatory (M2) markers in control and compound treated EAE […]. Splenic macrophages were harvested at day 13 post MBP-immunization and assayed for expression of a variety of markers by realtime PCR. CNS infiltrating cells were harvested and macrophages were analyzed for expression of M1 and M2 markers by realtime PCR.

[2] = molecular target: T1, Lp-PLA2 from plasma (pooled human plasma) (Homo sapiens, UniProt Q13093); assay: Lp-PLA2 human plasma assay (Thio-PAF assay); type: biochemical; conditions: read-out: pIC50 in the thio-PAF assay (converted)
T1 construct: from tissue; host or cells: pooled human plasma
T1 sequence (Q13093 22-441): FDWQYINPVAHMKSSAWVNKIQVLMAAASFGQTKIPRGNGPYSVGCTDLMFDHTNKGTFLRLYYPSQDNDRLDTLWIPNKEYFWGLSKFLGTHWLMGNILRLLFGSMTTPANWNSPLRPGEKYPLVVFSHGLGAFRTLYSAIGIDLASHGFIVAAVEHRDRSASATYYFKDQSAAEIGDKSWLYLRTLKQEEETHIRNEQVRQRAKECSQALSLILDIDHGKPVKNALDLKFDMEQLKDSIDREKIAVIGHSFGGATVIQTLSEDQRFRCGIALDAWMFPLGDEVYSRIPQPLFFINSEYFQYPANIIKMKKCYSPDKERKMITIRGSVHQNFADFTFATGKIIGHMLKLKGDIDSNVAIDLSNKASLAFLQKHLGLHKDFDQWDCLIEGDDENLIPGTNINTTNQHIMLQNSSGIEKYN
From the text: (3) Lipoprotein-Associated Phospholipase A2 (Lp-PLA2) Human Plasma Assay (Also Referred to as “Thio-PAF Assay”)
The human plasma assay utilizes a thioester analog of PAF (phosphatidylcholine), where hydrolysis yields to the formation of a phospholipid containing a free thiol group. The amount of thiol is quantitated continuously by reacting with CPM (7-diethylamino-3-(4′-maleimidylphenyl)-4-methylcoumarin), a maleimide which increases in fluorescence after Michael addition of thiols. This assay may detect the activity of Lp-PLA2 from plasma, as determined by specific inhibition by Lp-PLA2 inhibitors.
The thio-PAF assay was run as a quenched 15 μL assay. Compounds source plate was prepared by making 1:3 (by volume) serial dilution of the compounds into pure DMSO on 384-well microplate. 0.01 μL of compounds on compound source plate were transferred to 384 well Greiner 784076 (black) low-volume plates by ECHO liquid dispenser. 8 μL pooled human plasma, which was previously aliquoted and frozen, was added. Plates were centrifuged for 10 sec at 500 rpm. After 30 minutes preincubation, 2 μL of substrate (2.5 mM thio-PAF, 3.2 mM NEM (N-ethylmaleimide) [made fresh daily in DMSO], and 32 μM CPM [from a DMSO stock] in assay buffer of 50 mM HEPES, pH7.4, 150 mM NaCl, 1 mM CHAPS was added to 384 well Greiner 784076 (black) low-volume plates by BRAVO liquid handling station. Plates were centrifuged for 10 sec at 500 rpm. Plate was covered to protect from light and incubated for 2 min at room temperature. Reaction was quenched with 5 μL of 5% aqueous trifluoroacetic acid (TFA). Plates were covered to protect from light and incubated for 40 min at room temperature. Plates were read at ex: 380/em: 485 using-Envision microplate reader. PIC50 data, curve and QC analysis was conducted by using XLFit module in Excel.
All exemplified compounds of the present invention were tested in thio-PAF assay or similar assay as described above.

[3] = molecular target: T2, recombinant human Lp-PLA2 (Homo sapiens, UniProt Q13093); assay: Recombinant human Lp-PLA2 assay (rhLp-PLA2, PED6 assay); type: biochemical; conditions: upper limit for pIC50 obtained in this assay is 9.3
T2 sequence (Q13093 22-441): T1 sequence (Q13093 22-441)
From the text: (1) Recombinant Human Lp-PLA2 Assay (rhLp-PLA2) (Also Referred to as “PED6” Assay)
N-((6-(2,4-dinitrophenyl)amino)-hexanoyl)-2-(4,4-difluoro-5,7-dimethyl-4-bora-3a,4a-diaza-s-indacene-3-pentanoyl)-1-hexadecanoyl-sn-glycero-3-phosphoethanolamine, triethylammonium salt (PED6) is a commercially available fluorescently-labelled phospholipid, which is commercially available from Molecular Probes. There is a quenching para-nitro phenyl (PNP) group in the sn3 position and a Bodipy fluorescein (FL) group in the sn2 position. Upon cleavage with Lp-PLA2, the Bodipy F1 group is liberated and then may result in an increase in fluorescence.
The PED6 assay was run as an unquenched 10 μL assay. Compounds source plate was prepared by making 1:3 (by volume) serial dilution of the compounds into pure DMSO on 384-well microplate. […] 5 μL of recombinant human Lp-PLA2 enzyme (2 nM rhLp-PLA2 in assay buffer of 50 mM HEPES, pH7.4, 150 mM NaCl, 1 mM CHAPS) was added to each well of the plate with compounds. Plates were centrifuged for 10 sec at 500 rpm. […] Plates were centrifuged for 10 sec at 500 rpm. Plate was covered to protect from light and incubated for 20 min at room temperature. […] PIC50 data, curve and QC analysis was conducted by using XL fit module in Excel.

SMILES	M1 markers (proinflammatory) expression [1]	M2 markers (anti-inflammatory) expression [1]	IC50 [2] [µM]	IC50 [3] [µM]
COc1ccc2c(c1)CCn1c-2cc(Oc2ccc(Oc3cccc(C(F)(F)F)c3)c(C#N)c2)nc1=O [5-((9-Methoxy-4-oxo-6,7-dihydro-4H-pyrimido[6,1-a]isoquinolin-2-yl)oxy)-2-(3-(trifluoromethyl)phenoxy)benzonitrile]	decrease	increase	–	–
CCc1c[nH]c(CCc2ccc(Oc3cccc(C(F)(F)F)c3)cc2)nc1=O [E37, 5-ethyl-2-(4-(3-(trifluoromethyl)phenoxy)phenethyl)pyrimidin-4(1H)-one]	–	–	> 10	> 10
CCc1c[nH]c(CCc2ccc(Oc3ccc(F)cc3)cc2)nc1=O [E46, 5-ethyl-2-(4-(4-fluorophenoxy)phenethyl)pyrimidin-4(1H)-one]	–	–	–	> 10
COc1ncc(Cc2c[nH]c(OCCc3ccc(Oc4ncccn4)cc3)nc2=O)cn1 [E147, 5-((2-methoxypyrimidin-5-yl)methyl)-2-(4-(pyrimidin-2-yloxy)phenethoxy)pyrimidin-4(1H)-one]	–	–	> 10	> 10
CCc1c[nH]c(OCCc2ccc(Oc3c(F)cc(Cl)cc3F)cc2)nc1=O [E180, 2-(4-(4-chloro-2,6-difluorophenoxy)phenethoxy)-5-ethylpyrimidin-4(1H)-one]	–	–	> 10	> 10
